Data published in PubChem BioAssay (NCI).
Several values for one entry are separate records, joined by “and”; a condition that tells them apart may be missing. Equal entries are not always repeated.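 How tested: cells in 96-well plates exposed to compound for 48 hours at five concentrations. GI50 is the concentration that inhibits growth by half. TGI marks complete inhibition of growth.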

How the values were obtained:
Experiment in all cases: NCI tumour cell line growth inhibition, 48 h
[1] = tested on: MDA-MB-468 breast
[2] = tested on: 786-0 renal
[3] = tested on: A498 renal
[4] = tested on: A549 NSCLC
[5] = tested on: ACHN renal
[6] = tested on: BT-549 breast
[7] = tested on: CAKI-1 renal
[8] = tested on: CCRF-CEM leukemia
[9] = tested on: COLO 205 colon
[10] = tested on: DU-145 prostate
[11] = tested on: EKVX NSCLC
[12] = tested on: HCC-2998 colon
[13] = tested on: HL-60(TB) leukemia
[14] = tested on: HS 578T breast
[15] = tested on: IGROV1 ovarian
[16] = tested on: K-562 leukemia
[17] = tested on: LOX IMVI melanoma
[18] = tested on: M14 melanoma
[19] = tested on: MALME-3M melanoma
[20] = tested on: MOLT-4 leukemia
[21] = tested on: NCI-H226 lung
[22] = tested on: NCI-H522 lung
[23] = tested on: NCI/ADR-RES ovarian
[24] = tested on: OVCAR-5 ovarian
[25] = tested on: RPMI-8226 leukemia
[26] = tested on: RXF 393 renal
[27] = tested on: SF-295 CNS
[28] = tested on: SK-MEL-5 melanoma
[29] = tested on: SK-OV-3 ovarian
[30] = tested on: SN12C renal
[31] = tested on: SR leukemia
[32] = tested on: T-47D breast
[33] = tested on: TK-10 renal
[34] = tested on: UACC-257 melanoma
[35] = tested on: UACC-62 melanoma
[36] = tested on: UO-31 renal

Compound `C=C1CC[C@@H]2[C@](C)(COC(C)=O)[C@H](OC(C)=O)CC[C@@]2(C)[C@@H]1C/C=C1/C(=O)OC[C@H]1OC(C)=O` has a GI50 [1] of 2040 nM and a TGI [1] of 5690 nM.
For `C=C1C(=O)O[C@H]2[C@H]1CC/C(CNS(=O)(=O)c1cccc3ccccc13)=C\CC[C@@]1(C)O[C@@H]21`, the GI50 [1] was 1090 nM and the TGI [1] was 3150 nM.
For `CS(=O)(=O)Nc1cc(-c2ccc3ncnc(Nc4ccc5c(cnn5Cc5ccccc5F)c4)c3c2)cnc1Cl`, the GI50 [1] was 609 nM and the TGI [1] was 2560 nM.
For `OC(CNc1ccnc2cc(Cl)ccc12)CNC1CCCCC1` (centres undefined), the GI50 [1] was 1700 nM and the TGI [1] was 3790 nM.
In the case of `Cc1nn(-c2nc3ccccc3[nH]2)c2c1C(c1ccc3c(c1)OCO3)CC(=O)N2` (centres undefined), the GI50 [1] is reported as 2320 nM and the TGI [1] is reported as 6760 nM.
`O=Cc1ccc(O)c2ncccc12` showed a GI50 [1] of 4140 nM and a TGI [1] of over 100000 nM.
`COCCNC(=O)c1ccc(-c2nc3ccc4[nH]ncc4c3c3c2CCCC3)cc1` gave a GI50 [1] of 2460 nM and a TGI [1] of 50000 nM.
`CN1CCn2c(c(Sc3ccc(C(=O)NO)cc3)c3ccccc32)C1=O` showed a GI50 [1] of 1430 nM and a TGI [1] of 3250 nM.
Compound `C=CC(=O)Nc1cccc(C)c1Nc1ncc2cc(-c3c(Cl)c(OC)cc(OC)c3Cl)ccc2n1` has a GI50 [1] of 1870 nM and a TGI [1] of 6280 nM.
In the case of `NCCCCN(Cc1nc2ccccc2[nH]1)[C@H]1CCCc2cccnc21`, the GI50 [1] is reported as 10400 nM and the TGI [1] is reported as 30800 nM.
Work on `CN(C)c1ccc(O)c2c1C[C@H]1C[C@H]3[C@H](N(C)C)C(=O)C(C(N)=O)=C(O)[C@@]3(O)C(=O)C1=C2O` yielded a GI50 [1] of 3240 nM and a TGI [1] of 35100 nM.
Compound `CC1=C(CCC=O)C2=C(C)C3(CC3)[C@@](C)(O)C(=O)C2=C1` has a GI50 [2] of 110 nM, a TGI [2] of 440 nM and a GI50 [3] of 269 nM. It also gave a TGI [3] of 616 nM, a GI50 [4] of 159 nM and a TGI [4] of 4210 nM. For the same compound, the GI50 [5] was 78.9 nM, the TGI [5] was 636 nM and the GI50 [6] was 35.8 nM. For the same compound, the TGI [6] was 157 nM, the GI50 [7] was 123 nM and the TGI [7] was 855 nM. The GI50 [8] was 756 nM, the TGI [8] was over 100000 nM and the GI50 [9] was 144 nM. For the same compound, the TGI [9] was 303 nM, the GI50 [10] was 37.6 nM and the TGI [10] was 845 nM. It also gave a GI50 [11] of 210 nM, a TGI [11] of 546 nM and a GI50 [12] of 121 nM. It also gave a TGI [12] of 261 nM, a GI50 [13] of 118 nM and a GI50 [14] of 302 nM. It also gave a TGI [14] of 1280 nM, a GI50 [15] of 62.5 nM and a TGI [15] of 312 nM. It also gave a GI50 [16] of 330 nM, a GI50 [17] of 140 nM and a TGI [17] of 350 nM. The GI50 [18] was 101 nM, the TGI [18] was 254 nM and the GI50 [19] was 135 nM. It also gave a TGI [19] of 266 nM, a GI50 [1] of 100 nM and a TGI [1] of 239 nM. It also gave a GI50 [20] of 380 nM, a GI50 [21] of 157 nM and a TGI [21] of 587 nM. The GI50 [22] was 167 nM, the TGI [22] was 369 nM and the GI50 [23] was 104 nM. It also gave a TGI [23] of 330 nM, a GI50 [24] of 65.6 nM and a TGI [24] of 416 nM. The GI50 [25] was 444 nM, the TGI [25] was over 100000 nM and the GI50 [26] was 20.7 nM. The TGI [26] was 39.4 nM, the GI50 [27] was 222 nM and the TGI [27] was 1110 nM. The GI50 [28] was 94.6 nM, the TGI [28] was 240 nM and the GI50 [29] was 108 nM. For the same compound, the TGI [29] was 606 nM, the GI50 [30] was 167 nM and the TGI [30] was 755 nM. The GI50 [31] was 237 nM, the TGI [31] was 1120 nM and the GI50 [32] was 108 nM. The TGI [32] was 882 nM, the GI50 [33] was 218 nM and the TGI [33] was 1080 nM. It also gave a GI50 [34] of 208 nM, a TGI [34] of 464 nM and a GI50 [35] of 158 nM. It also gave a TGI [35] of 315 nM, a GI50 [36] of 53.4 nM and a TGI [36] of 263 nM.
In the case of `CCC(C)[C@H]1C(=O)O[C@H](C(C)C)C(=O)N(C)[C@@H](C(C)C)C(=O)O[C@H](C(C)C)C(=O)N(C)[C@@H](C(C)C)C(=O)O[C@H](C(C)C)C(=O)N1C` (some centres undefined), the GI50 [1] is reported as 542 nM and the TGI [1] is reported as over 10000 nM.
`Clc1ccc2c(c1)-c1ccccc1C1=NCCN12` showed a GI50 [1] of 1540 nM and a TGI [1] of 3150 nM.
`COC(=O)[C@@]1(O)C[C@H]2O[C@]1(C)n1c3ccccc3c3c4c(c5c6ccccc6n2c5c31)C(=O)NC4` was tested, and the GI50 [1] was 1340 nM and the TGI [1] was 3060 nM.
In the case of `Oc1ccc(N=Nc2ccc(N=Nc3ccccc3)cc2)cc1`, the GI50 [1] is reported as 4410 nM and the TGI [1] is reported as 19600 nM.
With `CCCCCN(CCCCC)CC(O)c1cc2c(c3ccccc13)CCCC2` (centres undefined) the GI50 [1] was 4340 nM and 12200 nM and the TGI [1] was 17200 nM and 28000 nM.
`O=C(N/N=C\c1ccc(N(CCCl)CCCl)cc1Cl)c1cccnc1` showed a GI50 [1] of 45.8 nM and a TGI [1] of 328 nM.
Compound `CCCN(CCC)C(=O)[C@H](CC)[C@@H]1CC[C@@H](C)[C@@H]([C@H](C)[C@@H](O)[C@@H](C)C(=O)[C@H](CC)C2O[C@]3(C=C[C@@H](O)[C@]4(CC[C@@](C)([C@H]5CC[C@](O)(CC)[C@H](C)O5)O4)O3)[C@H](C)C[C@@H]2C)O1` (some centres undefined) has a GI50 [1] of 1720 nM and a TGI [1] of 5330 nM.
`CCCCCCCCCCCC[n+]1ccc(C(N)=O)cc1` was tested, and the GI50 [1] was 633 nM and the TGI [1] was 2920 nM.
For `N#CC1=C(N)Oc2c(sc3c(F)cccc23)C1c1ccc(F)cc1` (centres undefined), the GI50 [1] was 452 nM and the TGI [1] was 15400 nM.
For `Cc1ccc(S(=O)(=O)Nc2nc3ccccc3nc2Nc2ccc3nsnc3c2)cc1`, the GI50 [1] was 3060 nM and 2660 nM and the TGI [1] was 13500 nM and 9260 nM.
Compound `COc1ccc2c(c1)OC(N)=C(C#N)C2c1ccc(F)cc1` (centres undefined) has a GI50 [1] of 401 nM and a TGI [1] of 33900 nM.
`COc1ccc([C@H]2[C@H](O)C(=O)N2c2cc(OC)c(OC)c(OC)c2)cc1Cl` was tested, and the GI50 [1] was under 10 nM and the TGI [1] was over 100000 nM.
Work on `O=C(/C=C/c1ccc(C(F)(F)F)cc1)c1ccc(Nc2nc(NCCO)nc(N3CCOCC3)n2)cc1` yielded a GI50 [1] of 1800 nM and a TGI [1] of 3860 nM.
In the case of `OC(CNC1CCCC1)Cn1c2ccccc2c2ccccc21` (centres undefined), the GI50 [1] is reported as 40700 nM and the TGI [1] is reported as over 100000 nM.
`COc1ccc2nc(C)cc(Nc3ccccc3O)c2c1` gave a GI50 [1] of 13800 nM and a TGI [1] of 45600 nM.
Compound `N=C(N)c1ccc(-c2ccc(-c3cccs3)s2)nc1` has a GI50 [1] of 73.2 nM and a TGI [1] of 779 nM.
`O=C1/C(=C/c2ccc(Cl)cc2)COc2ccc(O)c(O)c21` gave a GI50 [1] of 1430 nM and a TGI [1] of 3220 nM.
With `COC(=O)[C@@H](C)C[C@H](Cc1ccccc1)NC(=O)c1csc([C@@H](C[C@H](C(C)C)N(C)C(=O)C2(NC(=O)[C@H]3CCCCN3C)CC2)OC(C)=O)n1` the GI50 [1] was 2.51 nM.
For `O=C(CCCCCCC(=O)Nc1ccc2c(c1)/C(=C/c1ccc[nH]1)C(=O)N2)NO`, the GI50 [1] was 187 nM and the TGI [1] was 2090 nM.
`COc1ccc(/C=C/C(=O)c2cc3c(N)c(C(=O)Nc4ccccc4)sc3nc2C)cc1` gave a GI50 [1] of 179 nM and a TGI [1] of over 41700 nM.
`CCOC(=O)C#Cc1c(CC(=O)OCC)nnn1[C@H]1O[C@@H](CO)[C@@H]2OC(C)(C)O[C@@H]21` showed a GI50 [1] of 2090 nM and a TGI [1] of 4500 nM.
`COc1cccc2c(=O)c3c(sc12)c(NCCN(C)C)nc1ccccc13` gave a GI50 [1] of 1500 nM and a TGI [1] of 3150 nM.
